Legend:
Beta-secretase 1 [1] = biological target: T1, Beta-secretase 1 (Homo sapiens, UniProt P56817); assay: Inhibition of human recombinant BACE1 at 2 uM by FRET assay
Beta-secretase 1 [2] = biological target: T1, Beta-secretase 1; assay: Inhibition of human recombinant BACE1 at 0.2 uM by FRET assay
Beta-secretase 1 [3] = biological target: T1, Beta-secretase 1; assay: Inhibition of human recombinant BACE1 by FRET assay

T1 sequence (P56817 whole entry): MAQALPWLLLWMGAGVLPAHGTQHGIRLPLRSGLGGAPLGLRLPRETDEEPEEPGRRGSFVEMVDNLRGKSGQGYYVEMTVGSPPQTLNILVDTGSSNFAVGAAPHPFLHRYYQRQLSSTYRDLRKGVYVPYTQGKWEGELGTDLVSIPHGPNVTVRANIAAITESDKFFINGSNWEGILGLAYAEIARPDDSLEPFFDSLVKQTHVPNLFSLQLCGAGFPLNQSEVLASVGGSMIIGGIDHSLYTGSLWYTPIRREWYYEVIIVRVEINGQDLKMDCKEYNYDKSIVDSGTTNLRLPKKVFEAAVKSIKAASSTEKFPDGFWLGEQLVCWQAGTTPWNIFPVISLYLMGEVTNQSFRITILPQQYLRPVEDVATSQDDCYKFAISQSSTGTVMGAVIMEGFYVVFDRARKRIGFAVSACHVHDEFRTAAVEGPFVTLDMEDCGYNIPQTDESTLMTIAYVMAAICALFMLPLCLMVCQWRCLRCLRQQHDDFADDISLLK

## CSCC[C@H]1COCN1C(=O)c1cc(C(=O)N[C@@H](Cc2ccccc2)[C@H](O)C(=O)Nc2cccc(-c3nn[nH]n3)c2)cc([N+](=O)[O-])c1
Beta-secretase 1 [1]
  inhibition: 86%
Beta-secretase 1 [2]
  inhibition: 45%

## Cc1cc(C(=O)N[C@@H](Cc2ccccc2)[C@H](O)C(=O)Nc2cccc(-c3nnn[nH]3)c2)cc(C(=O)N2COC[C@@H]2c2ccccc2)c1
Beta-secretase 1 [3]
  IC50: 67 nM

## C[C@H]1COCN1C(=O)c1cc(C(=O)N[C@@H](Cc2ccccc2)[C@H](O)C(=O)Nc2cccc(-c3nn[nH]n3)c2)cc([N+](=O)[O-])c1
Beta-secretase 1 [1]
  inhibition: 33%

## O=C(N[C@@H](Cc1ccccc1)[C@H](O)C(=O)Nc1cccc(-c2nn[nH]n2)c1)c1cc(C(=O)N2COC[C@@H]2Cc2ccccc2)cc([N+](=O)[O-])c1
Beta-secretase 1 [1]
  inhibition: 89%
Beta-secretase 1 [2]
  inhibition: 45%

## CCCC[C@H]1COCN1C(=O)c1cc(C(=O)N[C@@H](Cc2ccccc2)[C@H](O)C(=O)Nc2cccc(-c3nn[nH]n3)c2)cc([N+](=O)[O-])c1
Beta-secretase 1 [1]
  inhibition: 92%
Beta-secretase 1 [2]
  inhibition: 59%

## CC(C)(C)c1cc(C(=O)N[C@@H](Cc2ccccc2)[C@H](O)C(=O)Nc2cccc(-c3nn[nH]n3)c2)cc(C(=O)N2COC[C@@H]2c2ccccc2)c1
Beta-secretase 1 [1]
  inhibition: 63%

## O=C(N[C@@H](Cc1ccccc1)[C@H](O)C(=O)Nc1cccc(-c2nn[nH]n2)c1)c1cc(C(=O)N2COC[C@@H]2c2ccccc2)cc([N+](=O)[O-])c1
Beta-secretase 1 [3]
  IC50: 19 nM
Beta-secretase 1 [1]
  inhibition: 98%
Beta-secretase 1 [2]
  inhibition: 88%

## O=C(N[C@@H](Cc1ccccc1)[C@H](O)C(=O)Nc1cccc(-c2nn[nH]n2)c1)c1cc(C(=O)N2COC[C@@H]2c2ccc(F)cc2)cc([N+](=O)[O-])c1
Beta-secretase 1 [3]
  IC50: 13 nM
Beta-secretase 1 [1]
  inhibition: 99%
Beta-secretase 1 [2]
  inhibition: 91%

## O=C(N[C@@H](Cc1ccccc1)[C@H](O)C(=O)Nc1cccc(-c2nnn[nH]2)c1)c1cc(I)cc(C(=O)N2COC[C@@H]2c2ccccc2)c1
Beta-secretase 1 [3]
  IC50: 34 nM

## COC[C@H]1CCCN1C(=O)c1cc(C(=O)N[C@@H](Cc2ccccc2)[C@H](O)C(=O)Nc2cccc(-c3nn[nH]n3)c2)cc([N+](=O)[O-])c1
Beta-secretase 1 [1]
  inhibition: 89%
Beta-secretase 1 [2]
  inhibition: 57%

## CCC[C@H]1COCN1C(=O)c1cc(C(=O)N[C@@H](Cc2ccccc2)[C@H](O)C(=O)Nc2cccc(-c3nn[nH]n3)c2)cc([N+](=O)[O-])c1
Beta-secretase 1 [1]
  inhibition: 93%
Beta-secretase 1 [2]
  inhibition: 57%

## O=C(N[C@@H](Cc1ccccc1)[C@H](O)C(=O)Nc1cccc(-c2nn[nH]n2)c1)c1cc(C(=O)N2CCCCC2)cc([N+](=O)[O-])c1
Beta-secretase 1 [1]
  inhibition: 49%

## Nc1cc(C(=O)N[C@@H](Cc2ccccc2)[C@H](O)C(=O)Nc2cccc(-c3nn[nH]n3)c2)cc(C(=O)N2COC[C@@H]2c2ccccc2)c1
Beta-secretase 1 [1]
  inhibition: 49%

## O=C(N[C@@H](Cc1ccccc1)[C@H](O)C(=O)Nc1cccc(-c2nn[nH]n2)c1)c1cc(C(=O)N2CCCCCC2)cc([N+](=O)[O-])c1
Beta-secretase 1 [1]
  inhibition: 60%

## O=C(N[C@@H](Cc1ccccc1)[C@H](O)C(=O)Nc1cccc(-c2nn[nH]n2)c1)c1cc(C(=O)N2COC[C@@H]2Cc2ccc(O)cc2)cc([N+](=O)[O-])c1
Beta-secretase 1 [1]
  inhibition: 80%

## O=C(N[C@@H](Cc1ccccc1)[C@H](O)C(=O)Nc1cccc(-c2nn[nH]n2)c1)c1cc(C(=O)N2CCCCCCCC2)cc([N+](=O)[O-])c1
Beta-secretase 1 [1]
  inhibition: 28%

## O=C(N[C@@H](Cc1ccccc1)[C@H](O)C(=O)Nc1cccc(-c2nn[nH]n2)c1)c1cc(C(=O)N2CCOCC2)cc([N+](=O)[O-])c1
Beta-secretase 1 [1]
  inhibition: 0%

## O=C(N[C@@H](Cc1ccccc1)[C@H](O)C(=O)Nc1cccc(-c2nn[nH]n2)c1)c1cc(I)cc(C(=O)N2COC[C@@H]2c2ccccc2)c1
Beta-secretase 1 [1]
  inhibition: 98%
Beta-secretase 1 [2]
  inhibition: 78%

## O=C(N[C@@H](Cc1ccccc1)[C@H](O)C(=O)Nc1cccc(-c2nn[nH]n2)c1)c1cc(C(=O)N2COC[C@@H]2c2cc(F)c(F)c(F)c2)cc([N+](=O)[O-])c1
Beta-secretase 1 [1]
  inhibition: 81%
Beta-secretase 1 [2]
  inhibition: 41%

## CC(C)C[C@H]1COCN1C(=O)c1cc(C(=O)N[C@@H](Cc2ccccc2)[C@H](O)C(=O)Nc2cccc(-c3nn[nH]n3)c2)cc([N+](=O)[O-])c1
Beta-secretase 1 [1]
  inhibition: 85%
Beta-secretase 1 [2]
  inhibition: 42%

## O=C(N[C@@H](Cc1ccccc1)[C@H](O)C(=O)Nc1cccc(-c2nn[nH]n2)c1)c1cc(C(=O)N2CCCCCCC2)cc([N+](=O)[O-])c1
Beta-secretase 1 [1]
  inhibition: 80%
Beta-secretase 1 [2]
  inhibition: 38%

## CCC(C)[C@H]1COCN1C(=O)c1cc(C(=O)N[C@@H](Cc2ccccc2)[C@H](O)C(=O)Nc2cccc(-c3nn[nH]n3)c2)cc([N+](=O)[O-])c1 (stereo partly specified)
Beta-secretase 1 [1]
  inhibition: 94%
Beta-secretase 1 [2]
  inhibition: 62%

## CC(C)(C)[C@H]1COCN1C(=O)c1cc(C(=O)N[C@@H](Cc2ccccc2)[C@H](O)C(=O)Nc2cccc(-c3nn[nH]n3)c2)cc([N+](=O)[O-])c1
Beta-secretase 1 [1]
  inhibition: 71%

## Cc1cc(C(=O)N[C@@H](Cc2ccccc2)[C@H](O)C(=O)Nc2cccc(-c3nn[nH]n3)c2)cc(C(=O)N2COC[C@@H]2c2ccccc2)c1
Beta-secretase 1 [1]
  inhibition: 95%
Beta-secretase 1 [2]
  inhibition: 65%

## CC[C@H]1COCN1C(=O)c1cc(C(=O)N[C@@H](Cc2ccccc2)[C@H](O)C(=O)Nc2cccc(-c3nn[nH]n3)c2)cc([N+](=O)[O-])c1
Beta-secretase 1 [1]
  inhibition: 92%
Beta-secretase 1 [2]
  inhibition: 54%

## O=C(N[C@@H](Cc1ccccc1)[C@H](O)C(=O)Nc1cccc(-c2nn[nH]n2)c1)c1cccc(C(=O)N2COC[C@@H]2c2ccccc2)c1
Beta-secretase 1 [3]
  IC50: 192 nM
Beta-secretase 1 [1]
  inhibition: 85%
Beta-secretase 1 [2]
  inhibition: 46%

## C[C@@H](NC(=O)c1cc(C(=O)N[C@@H](Cc2ccccc2)[C@H](O)C(=O)Nc2cccc(-c3nn[nH]n3)c2)cc([N+](=O)[O-])c1)c1ccccc1
Beta-secretase 1 [1]
  inhibition: 83%
Beta-secretase 1 [2]
  inhibition: 44%

## O=C(O)c1cc(C(=O)N[C@@H](Cc2ccccc2)[C@H](O)C(=O)Nc2cccc(-c3nn[nH]n3)c2)cc(C(=O)N2COC[C@@H]2c2ccccc2)c1
Beta-secretase 1 [3]
  IC50: 122 nM
Beta-secretase 1 [1]
  inhibition: 91%
Beta-secretase 1 [2]
  inhibition: 60%

## O=C(N[C@@H](Cc1ccccc1)[C@H](O)C(=O)Nc1cccc(-c2nn[nH]n2)c1)c1cc(C(=O)N2COC[C@@H]2Cc2c[nH]c3ccccc23)cc([N+](=O)[O-])c1
Beta-secretase 1 [1]
  inhibition: 57%

## O=C(N[C@@H](Cc1ccccc1)[C@H](O)C(=O)Nc1cccc(-c2nn[nH]n2)c1)c1cc(C(=O)N2CCCC2)cc([N+](=O)[O-])c1
Beta-secretase 1 [1]
  inhibition: 24%

## CC(=O)Oc1cc(C(=O)N[C@@H](Cc2ccccc2)[C@H](O)C(=O)Nc2cccc(-c3nn[nH]n3)c2)cc(C(=O)N2COC[C@@H]2c2ccccc2)c1
Beta-secretase 1 [1]
  inhibition: 79%

## CC(C)[C@H]1COCN1C(=O)c1cc(C(=O)N[C@@H](Cc2ccccc2)[C@H](O)C(=O)Nc2cccc(-c3nn[nH]n3)c2)cc([N+](=O)[O-])c1
Beta-secretase 1 [1]
  inhibition: 88%
Beta-secretase 1 [2]
  inhibition: 44%

## O=C(N[C@@H](Cc1ccccc1)[C@H](O)C(=O)Nc1cccc(-c2nn[nH]n2)c1)c1cc(Br)cc(C(=O)N2COC[C@@H]2c2ccccc2)c1
Beta-secretase 1 [3]
  IC50: 25 nM
Beta-secretase 1 [1]
  inhibition: 98%
Beta-secretase 1 [2]
  inhibition: 84%

## O=C(N[C@@H](Cc1ccccc1)[C@H](O)C(=O)Nc1cccc(-c2nn[nH]n2)c1)c1cc(C(=O)N2COC[C@@H]2CC2CCCCC2)cc([N+](=O)[O-])c1
Beta-secretase 1 [1]
  inhibition: 50%

## CCCN(CCC)C(=O)c1cc(C(=O)N[C@@H](Cc2ccccc2)[C@H](O)C(=O)Nc2cccc(-c3nn[nH]n3)c2)cc([N+](=O)[O-])c1
Beta-secretase 1 [1]
  inhibition: 79%

## C[C@@H](NC(=O)c1cc(C(=O)N[C@@H](Cc2ccccc2)[C@H](O)C(=O)Nc2cccc(-c3nn[nH]n3)c2)cc([N+](=O)[O-])c1)c1ccc(F)cc1
Beta-secretase 1 [1]
  inhibition: 87%
Beta-secretase 1 [2]
  inhibition: 50%
